Data reported in ChEMBL document CHEMBL4402557, “Nidufexor (LMB763), a Novel FXR Modulator for the Treatment of Nonalcoholic Steatohepatitis” (J Med Chem, 2020).
Calls of active or inactive are those of the source. No cut-off for these calls is given here.

Columns and labels:
[1] = test system: Rattus norvegicus; assay: In-vivo agonist activity at FXR in Han Wistar rat assessed as upregulation of FGF15 mRNA level in ileum at 1.5 mg/kg administered via oral gavage once daily for 14 days measured 10 hrs post last dose by qRT-PCR analysis relative to control; type: functional
[2] = Half life in mouse at 3 mg/kg, iv; type: ADME, organism-based; conditions: in vivo
[3] = molecular target: T1, Progesterone receptor (Homo sapiens, UniProt P06401); assay: Agonist activity at Progesterone receptor (unknown origin) incubated for 2 hrs by TR-FRET assay
T1 sequence (P06401 whole entry): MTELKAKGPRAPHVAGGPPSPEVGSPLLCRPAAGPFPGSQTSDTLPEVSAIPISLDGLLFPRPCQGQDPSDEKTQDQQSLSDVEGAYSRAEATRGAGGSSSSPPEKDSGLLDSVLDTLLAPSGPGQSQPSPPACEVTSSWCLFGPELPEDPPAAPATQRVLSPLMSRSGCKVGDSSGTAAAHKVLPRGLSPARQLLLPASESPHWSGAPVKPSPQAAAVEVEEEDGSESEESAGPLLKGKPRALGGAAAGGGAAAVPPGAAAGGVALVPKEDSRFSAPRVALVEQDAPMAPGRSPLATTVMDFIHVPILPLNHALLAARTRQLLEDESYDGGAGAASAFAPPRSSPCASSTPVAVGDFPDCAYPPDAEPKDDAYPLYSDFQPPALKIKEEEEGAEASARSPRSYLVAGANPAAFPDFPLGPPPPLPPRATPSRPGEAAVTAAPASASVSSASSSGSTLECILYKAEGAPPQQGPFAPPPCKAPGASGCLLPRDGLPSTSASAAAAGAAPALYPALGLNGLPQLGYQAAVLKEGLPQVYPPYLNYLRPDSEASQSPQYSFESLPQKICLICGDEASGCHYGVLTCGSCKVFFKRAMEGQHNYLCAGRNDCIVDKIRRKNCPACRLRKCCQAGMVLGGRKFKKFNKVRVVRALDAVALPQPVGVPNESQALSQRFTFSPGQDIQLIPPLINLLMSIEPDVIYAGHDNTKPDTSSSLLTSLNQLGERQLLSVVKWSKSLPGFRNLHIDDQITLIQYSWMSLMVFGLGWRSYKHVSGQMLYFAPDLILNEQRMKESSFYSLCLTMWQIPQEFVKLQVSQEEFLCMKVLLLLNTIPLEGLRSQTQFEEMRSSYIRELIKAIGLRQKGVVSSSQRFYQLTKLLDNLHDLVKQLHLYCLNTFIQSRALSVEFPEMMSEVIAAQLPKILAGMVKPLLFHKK

[4] = Volume of distribution at steady state in Wistar rat at 3 mg/kg, iv; type: ADME, organism-based; conditions: in vivo, read-out: Vdss
[5] = test system: Rattus norvegicus; assay: In-vivo agonist activity at FXR in Han Wistar rat assessed as upregulation of FGF15 protein level in serum at 1.5 mg/kg administered via oral gavage once daily for 14 days measured 10 hrs post last dose relative to control; type: functional
[6] = molecular target: T2, Bile acid receptor (Rattus norvegicus) (UniProt Q62735); assay: Agonist activity at FXR in rat primary hepatocytes assessed as increase in BSEP mRNA level incubated for 24 hrs by qRT-PCR analysis relative to DMSO; type: cell-based
T2 sequence (whole entry): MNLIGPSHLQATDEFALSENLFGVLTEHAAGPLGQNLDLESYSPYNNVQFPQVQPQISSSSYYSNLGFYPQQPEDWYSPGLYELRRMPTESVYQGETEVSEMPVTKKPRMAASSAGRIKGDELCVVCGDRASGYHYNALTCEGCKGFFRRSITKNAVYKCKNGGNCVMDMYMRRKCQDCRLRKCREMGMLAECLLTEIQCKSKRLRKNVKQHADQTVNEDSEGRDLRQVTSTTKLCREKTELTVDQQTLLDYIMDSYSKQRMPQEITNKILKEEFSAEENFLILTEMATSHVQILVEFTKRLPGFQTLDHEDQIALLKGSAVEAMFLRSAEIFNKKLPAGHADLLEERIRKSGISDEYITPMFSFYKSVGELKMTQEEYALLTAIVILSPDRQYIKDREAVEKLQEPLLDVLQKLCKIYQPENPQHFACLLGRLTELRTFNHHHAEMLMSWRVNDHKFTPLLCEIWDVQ

[7] = test system: Rattus norvegicus; assay: In-vivo agonist activity at FXR in orally dosed Han Wistar rat assessed as repression of CYP7a1 mRNA level in liver administered via oral gavage once daily for 14 days measured post last dose by qRT-PCR analysis; type: functional, organism-based
[8] = molecular target: T3, G-protein coupled bile acid receptor 1 (Homo sapiens, UniProt Q8TDU6); assay: Agonist activity at human GPBAR1 expressed in Jurkat cells assessed as increase in intracellular cAMP level incubated for 1 hr by fluorescence based assay; type: functional, cell-based
T3 sequence (Q8TDU6 whole entry): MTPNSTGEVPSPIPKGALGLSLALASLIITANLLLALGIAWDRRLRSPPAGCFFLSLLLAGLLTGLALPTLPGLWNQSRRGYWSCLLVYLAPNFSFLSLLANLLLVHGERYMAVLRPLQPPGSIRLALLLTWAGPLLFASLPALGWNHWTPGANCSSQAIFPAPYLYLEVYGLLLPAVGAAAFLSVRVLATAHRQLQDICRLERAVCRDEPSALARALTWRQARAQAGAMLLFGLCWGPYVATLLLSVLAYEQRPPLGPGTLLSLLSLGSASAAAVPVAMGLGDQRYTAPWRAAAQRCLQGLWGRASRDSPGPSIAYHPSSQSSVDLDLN

[9] = Oral bioavailability in Wistar rat at 3 mg/kg; type: ADME, organism-based; conditions: in vivo

With `Cn1nc(C(=O)N(Cc2ccccc2)Cc2ccc(C(=O)O)cc2)c2c1-c1cc(Cl)ccc1OC2` [NIDUFEXOR] the “fold change (FC)” value [1] was 30, the half-life [2] was 4.5 h and the EC50 [3] was > 30 µM. The Vd [4] was 0.8 L/kg, the “fold change (FC)” value [5] was 3.5 and the fold change (FC) [6] was 24. The Activity [7] was “Active”, the EC50 [8] was > 80 µM and the bioavailability [9] was 63%.
